In article PMC6420151 (Journal of medicinal chemistry, 2017):
Each block holds one compound with its values, some of them ahead of it.

How the values were obtained:
Format in all cases: biochemical
[1] = molecular target: T1, MMP-13 (Homo sapiens, UniProt P45452)
[2] = molecular target: T2, MMP-2 (Homo sapiens, UniProt P08253); test: MMP-2 enzyme assay with fTHP substrates; settings: 200 nM
T2 sequence (P08253 110-660): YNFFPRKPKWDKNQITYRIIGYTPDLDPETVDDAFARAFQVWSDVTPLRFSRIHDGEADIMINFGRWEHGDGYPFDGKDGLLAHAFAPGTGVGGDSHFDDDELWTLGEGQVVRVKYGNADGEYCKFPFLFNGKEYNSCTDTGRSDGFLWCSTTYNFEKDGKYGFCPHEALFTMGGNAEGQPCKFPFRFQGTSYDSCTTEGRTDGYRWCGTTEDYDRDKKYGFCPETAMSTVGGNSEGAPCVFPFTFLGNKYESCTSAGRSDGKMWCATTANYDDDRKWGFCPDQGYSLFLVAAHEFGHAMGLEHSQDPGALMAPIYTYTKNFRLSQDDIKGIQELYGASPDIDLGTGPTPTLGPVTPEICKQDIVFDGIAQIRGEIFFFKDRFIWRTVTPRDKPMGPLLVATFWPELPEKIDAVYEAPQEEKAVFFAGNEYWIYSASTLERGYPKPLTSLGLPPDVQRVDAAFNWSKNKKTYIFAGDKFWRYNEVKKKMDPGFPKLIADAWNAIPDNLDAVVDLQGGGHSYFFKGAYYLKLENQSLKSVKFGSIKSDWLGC

[3] = molecular target: MMP-8 (Homo sapiens, UniProt P22894); test: MMP-8 enzyme assay with fTHP substrates; settings: 200 nM
[4] = molecular target: T1, MMP-13; test: In vitro type II collagen cleavage assay; settings: 20 μM; intact type II collagen remaining after 24 h at 37 °C

Sequence of MMP-8 (P22894 101-467, species assumed): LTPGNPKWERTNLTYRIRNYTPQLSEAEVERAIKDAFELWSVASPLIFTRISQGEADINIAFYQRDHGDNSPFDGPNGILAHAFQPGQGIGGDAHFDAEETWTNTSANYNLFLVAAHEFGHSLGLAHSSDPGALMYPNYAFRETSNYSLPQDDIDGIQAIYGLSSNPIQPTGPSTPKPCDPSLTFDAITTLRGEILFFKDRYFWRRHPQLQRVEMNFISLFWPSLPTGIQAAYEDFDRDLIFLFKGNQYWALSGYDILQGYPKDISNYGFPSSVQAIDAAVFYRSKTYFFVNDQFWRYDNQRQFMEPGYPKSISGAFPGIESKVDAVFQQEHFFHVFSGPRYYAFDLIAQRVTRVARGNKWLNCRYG

loss of inhibition activity vs MMP-13 compared to the (S)-enantiomer ([1]; D-valine analogue compared to L-valine analogue): ca. 40 fold
SMILES: CNC(=O)[C@H](NC(=O)c1ccc(-c2ccc(CSc3nc4c(c(=O)[nH]3)CCC4)cc2)o1)C(C)C [(R)-17a]

improvement of MMP-13 inhibition potency compared to 5 ([1]; compared to starting inhibitor 5): ~300 fold
inhibition of MMP-2 in single-dose assay [2]: moderately active
inhibition of MMP-8 in single-dose assay [3]: moderately active
SMILES: CNC(=O)[C@@H](NC(=O)c1ccc(-c2ccc(CSc3nc4c(c(=O)[nH]3)CCC4)cc2)o1)C(C)C [(S)-17a]

inhibition of collagenolysis (type II collagen cleavage by MMP-13) [4]: nearly inactive
SMILES: Cc1ccc(CSc2nc(O)c3c(n2)CCC3)cc1 [Compound 5]
